Reference: ChEMBL document CHEMBL6121019, “Design, synthesis and biological evaluation of bisnoralcohol derivatives as novel IRF4 inhibitors for the treatment of multiple myeloma” (Eur J Med Chem, 2025)
Active and inactive are the calls of the source. The rule behind the calls is not given here.

Key:
[1] = test system: NCI-H929; assay: Antitumor activity against human NCI-H929 cells xenografted in Balb/C nude mouse model assessed as inhibition of Akt phosphorylation level at 25 mg/kg by Western blot analysis; type: functional, organism-based
[2] = test system: RPMI-8226; assay: Antiproliferative activity against human RPMI-8226 cells overexpressing IRF4 at 0.125 to 1 uM measured after 72 hrs by MTS assay; type: functional, cell-based; conditions: dose 0.125-1 µM
[3] = test system: NCI-H929; assay: Induction of cell cycle arrest in human NCI-H929 cells assessed as inhibition of cyclin E1 protein expression at 0.1 to 1 uM; type: functional, cell-based; conditions: dose 0.1-1 µM
[4] = test system: MM.1R; assay: Effect on IRF4 expression in human MM1.R cells with siRNA mediated IRF4 knockdown by Western blot analysis; type: functional, cell-based
[5] = Toxicity in Balb/C nude mouse assessed as changes in main organ at 12.5 to 25 mg/kg administered once daily and measured every three days for 34 days by H and E staining based analysis; type: organism-based; conditions: in vivo, 816 h, dose 12.5-25 mg/kg, time 34 day
[6] = test system: NCI-H929; assay: Induction of cell cycle arrest in human NCI-H929 cells assessed as inhibition of cyclin B1 protein expression at 0.1 to 1 uM; type: functional, cell-based; conditions: dose 0.1-1 µM
[7] = AUC (0 to t) in ICR mouse plasma at 10 mg/kg, po; type: ADME, organism-based
[8] = test system: HaCaT; assay: Effect on IRF4 expression in human HaCaT cells by Western blot analysis; type: functional, cell-based
[9] = target: T1, Interferon regulatory factor 4 (Homo sapiens, UniProt Q15306); assay: Binding affinity to IRF4 (unknown origin) assessed as dissociation constant by SPR analysis
T1 sequence (Q15306 whole entry): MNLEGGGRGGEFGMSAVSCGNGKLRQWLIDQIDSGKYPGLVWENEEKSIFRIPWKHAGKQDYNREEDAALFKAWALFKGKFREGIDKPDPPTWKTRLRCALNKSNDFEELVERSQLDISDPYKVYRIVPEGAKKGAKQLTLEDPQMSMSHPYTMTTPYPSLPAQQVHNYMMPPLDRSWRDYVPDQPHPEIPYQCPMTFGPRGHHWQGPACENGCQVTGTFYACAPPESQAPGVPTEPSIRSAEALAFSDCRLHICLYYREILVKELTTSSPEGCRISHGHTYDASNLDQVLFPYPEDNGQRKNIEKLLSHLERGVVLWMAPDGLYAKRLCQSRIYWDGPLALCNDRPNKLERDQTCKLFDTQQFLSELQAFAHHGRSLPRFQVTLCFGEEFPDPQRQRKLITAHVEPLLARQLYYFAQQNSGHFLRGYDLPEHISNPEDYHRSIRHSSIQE

[10] = test system: NCI-H929; assay: Effect on IRF4 expression in human NCI-H929 cells with siRNA mediated IRF4 knockdown by Western blot analysis; type: functional, cell-based
[11] = Potency index, ratio of IC50 for lenalidomide to test compound IC50 for antiproliferative activity against human RPMI-8226 cells assessed as inhibition of cell growth measured after 72 hrs by MTS assay; type: functional
[12] = Antiproliferative activity against human HAF cells assessed as inhibition of cell viability measured after 72 hrs by MTS assay; type: toxicity, cell-based
[13] = Terminal elimination half life in ICR mouse plasma at 1.0 mg/kg, iv; type: ADME, organism-based; conditions: read-out: beta t1/2 (converted)
[14] = test system: NCI-H929; assay: Downregulation of HK2 expression in human NCI-H929 cells measured after 24 hrs by qRT-PCR analysis; type: functional, cell-based; conditions: dose 0.125-1 µM
[15] = test system: NCI-H929; assay: Induction of cell cycle arrest in human NCI-H929 cells assessed as accumulation of cells at G1 phase at 0..5 uM measured after 24 hrs by flow cytometry analysis (reference value: 54.12%); type: functional
[16] = test system: MM.1R; assay: Inhibition of AKT phosphorylation level in human MM1.R cells at 0.1 to 1 uM by Western blot analysis; type: functional, cell-based; conditions: dose 0.1-1 µM
[17] = test system: NCI-H929; assay: Antiproliferative activity against human NCI-H929 cells with siRNA mediated IRF4 knockdown measured upto 5 days by MTS assay; type: functional, cell-based; conditions: time <= 5.0 day
[18] = Cmax in ICR mouse plasma at 1.0 mg/kg, iv; type: ADME, organism-based
[19] = test system: NCI-H929; assay: Antiproliferative activity against human NCI-H929 cells assessed as inhibition of cell viability measured after 72 hrs by MTS assay; type: functional, cell-based; conditions: NCI-H929, 72 h
[20] = Toxicity in Balb/C nude mouse assessed as side effects at 12.5 to 25 mg/kg administered once daily and measured every three days for 34 days by H and E staining based analysis; type: organism-based; conditions: in vivo, 816 h, dose 12.5-25 mg/kg, time 34 day
[21] = test system: NCI-H929; assay: Downregulation of Blimp1 expression in human NCI-H929 cells measured after 24 hrs by qRT-PCR analysis; type: functional, cell-based; conditions: dose 0.125-1 µM
[22] = target: T2, Interferon regulatory factor 3 (Homo sapiens) (UniProt Q14653); assay: Induction of thermal stabilization of IRF3 in human NCI-H929 cells at 42 to 42.3 degree C by […] method; type: cell-based
T2 sequence (whole entry): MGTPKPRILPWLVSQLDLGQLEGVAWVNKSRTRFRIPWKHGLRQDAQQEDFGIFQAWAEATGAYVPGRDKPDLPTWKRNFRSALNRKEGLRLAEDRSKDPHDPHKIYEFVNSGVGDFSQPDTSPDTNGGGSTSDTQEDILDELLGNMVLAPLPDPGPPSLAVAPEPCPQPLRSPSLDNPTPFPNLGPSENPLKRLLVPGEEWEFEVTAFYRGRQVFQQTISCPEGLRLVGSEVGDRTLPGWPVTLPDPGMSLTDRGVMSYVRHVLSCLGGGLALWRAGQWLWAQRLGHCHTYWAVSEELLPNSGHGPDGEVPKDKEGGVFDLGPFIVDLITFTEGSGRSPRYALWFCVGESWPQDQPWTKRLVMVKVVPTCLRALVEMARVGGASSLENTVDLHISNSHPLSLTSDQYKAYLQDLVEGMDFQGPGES

[23] = test system: NCI-H929; assay: Induction of cell cycle arrest in human NCI-H929 cells assessed as accumulation of cells at S phase at 0.25 uM measured after 24 hrs by flow cytometry analysis (reference value: 32.14%); type: functional
[24] = test system: MM.1R; assay: Inhibition of ERK phosphorylation level in human MM1.R cells at 0.1 to 1 uM by Western blot analysis; type: functional, cell-based; conditions: dose 0.1-1 µM
[25] = test system: NCI-H929; assay: Antitumor activity against human NCI-H929 cells xenografted in Balb/C nude mouse model assessed as inhibition of inhibition of cyclin D1 expression at 25 mg/kg by Western blot analysis; type: functional, organism-based
[26] = test system: NCI-H929; assay: Induction of cell cycle arrest in human NCI-H929 cells assessed as accumulation of cells at G2 phase at 0.25 uM measured after 24 hrs by flow cytometry analysis (reference value: 13.37%); type: functional
[27] = test system: NCI-H929; assay: Induction of cell cycle arrest in human NCI-H929 cells assessed as accumulation of cells at G2 phase at 0.5 uM measured after 24 hrs by flow cytometry analysis (reference value: 13.37%); type: functional
[28] = target: T3, Interferon regulatory factor 4 (Homo sapiens) (UniProt Q15306); assay: Induction of thermal stabilization of IRF4 in human NCI-H929 cells at 42 to 42.3 degree C by […] method; type: cell-based
T3 sequence (whole entry): T1 sequence (Q15306 whole entry)

[29] = test system: RPMI-8226; assay: Effect on IRF4 expression in human RPMI-8226 cells by Western blot analysis; type: functional, cell-based
[30] = test system: MM.1R; assay: Downregulation of HK2 expression in human MM1.R cells measured after 24 hrs by qRT-PCR analysis; type: functional, cell-based; conditions: dose 0.125-1 µM

AUC(0-t) [7]: 285 ng·h/mL
Kd [9]: 1.28 µM
half-life [13]: 1.25 h
Cmax [18]: 174 ng/mL
IC50 [19]: 0.08 µM
Activity [22]: inactive
Activity [28]: Active
Compound: COc1ccc(NC(=O)[C@@H](C)[C@H]2CC[C@H]3[C@@H]4C(=O)C=C5C(C)(C)C(=O)C(C#N)=C[C@]5(C)[C@H]4CC[C@]23C)cc1
Activity [1]: Active
Activity [2]: Active
Activity [3]: Active
Activity [4]: Active
Activity [5]: Non-toxic
Activity [6]: Active
Activity [8]: inactive
Activity [10]: Active
Ratio IC50 [11]: 30
IC50 at 72 h [12]: > 100 µM
Activity [14]: Active
Activity [15]: 64.61%
inhibition [16]: Active
Activity [17]: Active
Activity [20]: Non-toxic
Activity [21]: Active
Activity [23]: 25.49%
inhibition [24]: Active
Activity [25]: Active
Activity [26]: 14.14%
Activity [27]: 10.56%
Activity [29]: Active; Compound Showed Low Expression
Activity [30]: Active
